For this assay, the system named is herpes labialis outbreak. As to the kind of experiment: Clinical trial of herpes labialis outbreaks after sensitization dose (Example 2). It is filed as in vivo, human. To be noted: for Average days to first outbreak after the sensitization dose: 120 days used if no outbreak in 120 days. Here is the method:
The median time to the next outbreak for the placebo group was 40 days vs more than 122 days for the 2.0% SADBE group, which difference was highly significant (P=0.009) (Palli 2017). SADBE is a topical immunosensitizer that induces a delayed-type hypersensitivity response and is commonly used in the treatment of verruca vulgaris and alopecia areata (Lee 1999; Silverberg 2000, Rokhshar 1998). […]
(p<0.05). The average days to the first outbreak after the sensitization dose was also measured. […] The A: placebo, 0% SADBE in DMSO.

Where “and” joins values, the source holds several entries; their conditions need not be identical. Identical values can stand only once. Marks after values point to notes of the source that are not given here.

Regarding `CCCCOc1c(OCCCC)c(=O)c1=O` [2% SADBE], the “Persons having an outbreak within X days after the sensitization dose” value (“Persons having an outbreak within X days” below) (30 days, group B) is given as 2 (of 16); the “Persons having an outbreak within X days” value (30 days, group C) is on record as 3 (of 15); the “Persons having an outbreak within X days” value (30 days, groups B + C) is 5 (of 31); the “Persons having an outbreak within X days” value (45 days, group B) is 4 (of 16); the “Persons having an outbreak within X days” value (45 days, group C) is 4 (of 15); the “Persons having an outbreak within X days” value (45 days, groups B + C) is reported as 8 (of 31). The “Persons having an outbreak within X days” value reads like this: (60 days, group B) 5 (of 16); (60 days, group C) 4 (of 15); (60 days, groups B + C) 9 (of 31); (<120 days, group B) 6 (of 16); (<120 days, group C) 4 (of 15); (<120 days, groups B + C) 10 (of 31). The “Days to first new outbreak after sensitization dose on upper arm” value (each patient) was 18 days and 34 days and 37 days and 41 days and 50 days and 80 days and 91 days and >120 days (19×) and 14 days (2×) and 15 days. Besides, the “Average days to first outbreak after the sensitization dose” value runs as follows: (group B) 88.5 days; (group C) 94.7 days; (groups B + C) 91.5* days. Moreover, the “Days to first new outbreak after sensitization dose on upper arm, median” value (treatment group) is given as more than 120 days.

The record behind these values is US11957783B2, “Topical immunosensitizers to treat viral and fungal infections” (Squarex, LLC, priority 2018, dated 2024).
